Molecules are shown by their SMILES. Activity calls are given as the source filed them. The rule behind the calls is not given here. Where only a bound is given, the exact number is not on record here.

A short description of the assay: non-covalent RecA intein splicing inhibitors, dose response, biochemical, cell-free, fluorescence, secondary screen (AID 449750).
`COc1ccc(C(=O)c2c(C(F)(F)F)oc3c2C(=O)c2ccccc2C3=O)cc1OC`: the AC50 (in general, the concentration giving half of the maximal activity seen) was > 38 µM (inactive).
For `O=C1/C(=C/Nc2ccc3c(c2)OCO3)CCc2ccccc21`, the AC50 is 4 µM.
On to `CCC(=O)Nc1c(C)nn(C(=O)CC)c1C`, for which the AC50 was > 38 µM (inactive).
For the compound `Cc1ccc(-c2cc(NC(=O)CCl)n(-c3ccccc3)n2)cc1`, the AC50 was 7.65 µM.
The result for `O=c1cc(-c2ccc(Br)cc2)[nH][nH]1` reads 13.4 µM.
`CCCCC[C@H](O)/C=C/[C@@H]1[C@@H](C/C=C\CCCC(=O)OC)[C@@H](O)C[C@H]1O`: the AC50 is 36.5 µM.
As to `COC(=O)Cc1[nH]nc2c1C(c1ccc(O)c(OC)c1)C(C#N)=C(N)O2` (configuration not stated), the AC50 was 28.4 µM.
With `NS(=O)(=O)c1ccc(NC2=CC(=O)C(=O)c3ccccc32)cc1`, the half-maximal activity concentration (AC50) is 7.47 µM.
Take `Cc1ccc(N(NC(=O)C(O)(c2ccccc2)c2ccccc2)C(=O)CCl)cc1`: the AC50 is 1.57 µM.
Regarding `CSc1nc(=S)n(-c2ccc([N+](=O)[O-])cc2)c(C)c1C(C)=O`, the AC50 is > 38 µM (inactive).
For `CCCCNC(=O)c1c(N)n(Cc2ccc3c(c2)OCO3)c2nc3ccccc3nc12`, the AC50 is 7.9 µM.
On to `CCOc1ccc(S(=O)(=O)Nc2cc(SCC(=O)O)c(O)c3ccccc23)cc1`, for which the AC50 was 2.81 µM.
Take `Cn1c(SCC(=O)NCC2CCCO2)ncc(C(=O)Nc2ccccc2)c1=O` (configuration not stated): the AC50 was > 38 µM (inactive).
Consider `COc1cccc(-c2[nH]nc3c2C(c2ccc(C)o2)C(C#N)=C(N)O3)c1` (configuration not stated), for which the AC50 is 26.2 µM.
Regarding `COc1ccc(C(=O)Nc2ccc(O)c3ccccc23)cc1OC`, the AC50 was > 38 µM (inactive).
On to `COc1ccc(OC)c(Nc2cc3ccccc3c(=O)[nH]2)c1`, for which the AC50 is 1.92 µM.
The result for `CC(C)(C)c1csc(NC(=O)c2c(F)c(F)c(F)c(F)c2F)n1` reads 16.3 µM; that for `CC(C)(C)c1cc[n+](C2=C([O-])c3ccccc3C(=O)/C2=N\S(=O)(=O)c2cccs2)cc1`, 8.96 µM; that for `O=C(O)/C=C/C(=O)Nc1ccc(C2(c3ccc(NC(=O)/C=C/C(=O)O)cc3)c3ccccc3-c3ccccc32)cc1`, 4.61 µM.
The result for `CCCCCCCCCCCCCCCC[N+](C)(C)CC` reads 10.9 µM.
`CCOC(=O)c1c(NC(C)=O)sc2c1CCC(C=NCCCN(CC)CC)=C2Sc1ccccc1`: the AC50 is 0.311 µM.
As to `O=C1c2ccccc2-n2c1nc1ccccc1c2=O`, the AC50 was > 38 µM (inactive).
Consider `CCN(CC)c1ccc(/C=N/Nc2nc(C)cc(=O)[nH]2)c(O)c1`, for which the AC50 is > 38 µM (inactive).
For the compound `O=C1C(C2=C(O)c3ccccc3C2=O)=Nc2ccccc21`, the AC50 was 2.98 µM.
Consider `COC(=O)C1CN(C#N)N(c2ccc(Cl)cc2)C12c1ccccc1-c1ccccc12` (configuration not stated), for which the half-maximal activity concentration (AC50) is 10.7 µM.
For `COc1ccc(/C=C2/C(=O)N(c3ccccc3)N=C2C)cc1OC`, the AC50 was 5.49 µM.
Turning to `Cc1ccc(S(=O)(=O)NC(=O)Nc2ccc(N(C)C)cc2)cc1`, the AC50 was 31 µM.
On to `CCN(CC)C(=O)c1ccc2c(c1[N+](=O)[O-])C(=O)c1ccccc1C2=O`, for which the AC50 is > 38 µM (inactive).
In the case of `CC1(C)CC(C(CCN(Cc2ccccc2)C(=O)c2ccco2)c2ccc(F)cc2)CCO1` (configuration not stated), the AC50 was 5.14 µM.
With `CCOC(=O)C1=C(C)NC(SCc2cc(=O)[nH][nH]2)=C(C#N)C1c1cccs1` (configuration not stated), the AC50 is 4.69 µM.
On to `COc1ccccc1CN1CCSCC1`, for which the AC50 was > 38 µM (inactive).
With `CCc1nc(N2CCN(C(=O)CCl)CC2)c2c3c(sc2n1)CC(C)CC3` (configuration not stated), the AC50 is 2 µM.
As to `CN(C)C(=O)c1ccc2c(c1[N+](=O)[O-])C(=O)c1ccccc1C2=O`, the AC50 is > 12 µM (inactive).
Consider `COC(=O)c1[nH]c(=O)c2ccccc2c1O`, for which the AC50 is 12.1 µM.
`COc1cc(-n2nc(C)c3c2OC(N)=C(C#N)C3c2ccccc2)c(Cl)c(Br)c1O` (configuration not stated): the AC50 was 16 µM.
Take `CCOC(=O)N1CCC2(CC1)C(C#N)=C(N)Oc1n[nH]c(C)c12`: the AC50 was > 38 µM (inactive).
For the compound `O=C(CCl)Nc1cn(-c2ccccc2)nc1-c1ccc(F)cc1`, the AC50 is 2.82 µM.
Consider `COc1ccc(N2C(=O)C(Cl)=C(N3CCN(Cc4ccccc4)CC3)C2=O)cc1`, for which the AC50 was > 38 µM (inactive).
With `O=C(CCl)Nc1sccc1C(=O)c1ccccc1`, the AC50 was 14 µM.
Take `O=C(N/N=C/c1c(O)n(C2CCCCC2)c(=S)[nH]c1=O)c1ccccc1O`: the AC50 is 4.36 µM.
As to `Cc1nnc(N/N=C\c2ccc(-c3ccccc3[N+](=O)[O-])o2)n1N`, the AC50 was > 38 µM (inactive).
Consider `O=c1[nH]c(Nc2ccc(F)cc2)cc2ccccc12`, for which the AC50 was 2.58 µM.
Consider `CC1=NN(c2ccc(S(=O)(=O)O)cc2Cl)C(=O)C1`, for which the concentration at half-maximal activity (AC50) was 3.66 µM.
With `O=C(Oc1ccc(Br)cc1C(=S)N1CCCCC1)c1cc([N+](=O)[O-])cc([N+](=O)[O-])c1`, the AC50 is > 38 µM (inactive).
`Cc1cc2c(N)cccc2nn1`: the AC50 is > 38 µM (inactive).
Turning to `O=[N+]([O-])c1c(Nc2ccccn2)cc(Cl)c2nonc12`, the AC50 is 1.76 µM.
With `CCc1ccc(OCC(=O)N/N=C2\CC(=O)c3ccccc32)cc1`, the AC50 was 26.8 µM.
With `O=C1C(=O)c2ccccc2C(O)=C1CCCCl`, the AC50 is 35.6 µM.
For the compound `N#C[C@H]1[C@H](c2ccccc2)[C@](C#N)(C(=O)c2ccccc2)[C@@H]2C=Cc3ccccc3N21`, the AC50 is > 38 µM (inactive).
As to `COc1ccc(N(C(=O)CCl)C(C(=O)NCCc2ccccc2)c2cccs2)cc1Cl` (configuration not stated), the AC50 was 0.672 µM.
For `O=C(CCNc1cccc(F)c1)c1cccc([N+](=O)[O-])c1`, the AC50 was > 38 µM (inactive).
`O=C(/C=C/c1ccco1)c1ccc(NC(=O)C23CC4CC(CC(C4)C2)C3)cc1`: the half-maximal activity concentration (AC50) was 12.9 µM.
The result for `COc1ccc(-c2cc(C(=O)n3cnc4ccccc43)c3ccccc3n2)cc1` reads > 38 µM (inactive); that for `CCCCCCOC(=O)c1ccc(OC(=O)c2cccnc2)cc1`, > 38 µM (inactive); that for `Cc1cc(C(=O)Cn2ncc(Cl)c(Cl)c2=O)c(C)n1CC(F)(F)F`, > 38 µM (inactive).
For `COc1ccc(-c2cc(=O)n(-c3ccc([N+](=O)[O-])cc3)[nH]2)cc1`, the AC50 was 3.4 µM.
The result for `O=C(Cc1cc(=O)[nH][nH]1)N/N=C/c1cccc(Cl)c1Cl` reads 20 µM; that for `C=CCOC(=O)C1=C(C)NC(=O)NC1c1ccc(OC(=O)c2ccco2)c(OC)c1` (configuration not stated), > 38 µM (inactive); that for `CCOC(=O)CN1C(=O)N[C@@H](c2cccc(C(F)(F)F)c2)C(C(C)=O)=C1C`, > 38 µM (inactive).
Turning to `Nc1ccc2nc(CCCCc3nc4ccccc4[nH]3)[nH]c2c1`, the AC50 was > 38 µM (inactive).
With `O=C(O)c1ccc([N+](=O)[O-])c2c1C(=O)c1ccccc1C2=O`, the AC50 was > 38 µM (inactive).
Take `O=C1C(Cl)=C(NCc2cccnc2)C(=O)c2ccccc21`: the AC50 is 13.6 µM.
As to `O=C(Cc1ccccc1Cl)NC1(O)C(=O)c2ccccc2C1=O`, the AC50 is 7.63 µM.
Take `ClCc1nnc(-c2cc3c(s2)CCCC3)o1`: the AC50 is > 38 µM (inactive).
On to `O=C1/C(=C/c2ccc(F)cc2)SC(=S)N1CC(=O)N1CCCCC1c1cccnc1` (configuration not stated), for which the AC50 was 38.4 µM.
Regarding `O=C(O)CN1C(=O)/C(=C\c2cccc(OC(=O)c3ccco3)c2)SC1=S`, the AC50 is > 38 µM (inactive).
The result for `Cc1cccc(N(Cc2ccccc2)C(=O)CCl)c1` reads 2.06 µM.
